Test results published in patent US20080312223A1, “Thiazole And Isothiazole Derivatives That Modulate The Activity Of CDK, GSK And Aurora Kinases” (ASTEX THERAPEUTICS LIMITED, priority 2004, published 2008).
Like-named read-outs stand apart in the source and are kept apart here.

How the values were obtained:
CDK1/CyclinB = target: T1, CDK1/CyclinB (Homo sapiens, UniProt P06493); assay: Activated CDK1/CyclinB kinase inhibitory activity assay; type: biochemical; conditions: Example 11, read-out: IC50 in the CDK2 assay (stated under the CDK1/CyclinB assay, Example 11)
T1 construct: purchased Upstate Discovery
Method: (§1) Activated CDK2/CyclinA (Brown et al, Nat. Cell Biol., 1, pp 438-443, 1999; Lowe, E. D., et al Biochemistry, 41, pp 15625-15634, 2002) is diluted to 125 pM in 2.5× strength assay buffer (50 mM MOPS pH 7.2, 62.5 mM β-glycerophosphate, 12.5 mM EDTA, 37.5 mM MgCl2, […], 2.5 mM DTT, 2.5 mM sodium orthovanadate, 0.25 mg/ml bovine serum albumin), and 10 μl mixed with 10 μl of histone substrate mix (60 μl bovine histone H1 (Upstate Biotechnology, 5 mg/ml), 940 μl H2O, 35 μCi γ^33P-ATP) and added to 96 well plates along with 5 μl of various dilutions of the test compound in DMSO (up to 2.5%). The reaction is allowed to proceed for 2 to 4 hours before being stopped with an excess of ortho-phosphoric acid (5 μl at 2%).
(§2) γ^33P-ATP which remains unincorporated into the histone H1 is separated from phosphorylated histone H1 on a Millipore MAPH filter plate. The wells of the MAPH plate are wetted with 0.5% orthophosphoric acid, and then the results of the reaction are filtered with a Millipore vacuum filtration unit through the wells. Following filtration, the residue is washed twice with 200 μl of 0.5% orthophosphoric acid. Once the filters have dried, 20 μl of Microscint 20 scintillant is added, and then counted on a Packard Topcount for 30 seconds. The % inhibition of the CDK2 activity is calculated and plotted in order to determine the concentration of test compound required to inhibit 50% of the CDK2 activity (IC50).
CDK1/CyclinB assay.is identical to the CDK2/CyclinA above except that CDK1/CyclinB (Upstate Discovery) is used and the enzyme is diluted to 6.25 nM.

AuroraB = target: T2, AuroraB (Homo sapiens, UniProt Q96GD4); assay: Aurora B kinase assay (DELFIA); type: biochemical; conditions: 15 μM ATP
T2 construct: purchased ProQinase
Method: Aurora activity was determined using a Dissociative Enhanced Lanthanide Fluoro Immuno Assay (DELFIA) with a GSK3-derived biotinylated peptide. The amount of phosphorylated peptide produced is quantified by means of a phospho-specific primary antibody and europium-labelled anti-rabbit IgG antibody using time-resolved fluorescence at λex=337 nm, λem=620 nm.
Assay reactions are set up in 96 well plates in a total reaction volume of 25 μl with 5 nM AuroraB (ProQinase), 3 μM Biotin-[…], 15 μM ATP and various dilutions of compound in 25 mM TRIS pH 8.5, 0.1 mg/ml BSA, 0.025% Surfact-Amps 20, 5 mM MgCl2, 1 mM DTT, & 2.5% DMSO. The reaction is allowed to proceed for 90 minutes at room temperature before stopping with 100 μl STOP buffer containing 100 mM EDTA, 0.05% Surfact-amps20 (Pierce) and 1× Blocker™ BSA in TBS (Pierce).
The detection step was carried out as described for AuroraA.

GSK3β (human) = GSK3β (human) (Homo sapiens, UniProt P49841); assay: Inhibitory activity against Glycogen Synthase Kinase-3; type: biochemical
Method: GSK3β (human) is diluted to a 10× working stock in 50 mM Tris pH 7.5, 0.1 mM EGTA, 0.1 mM sodium vanadate, 0.1% β-mercaptoethanol, 1 mg/ml BSA. One unit equals the incorporation of 1 nmol of phosphate per minute phospho-glycogen synthase peptide 2 per minute.
In a final reaction volume of 25 μl, GSK3β (5-10 mU) is incubated with 8 mM MOPS 7.0, 0.2 mM EDTA, 20 μM […](p)EDEEE (phospho GS2 peptide), 10 mM MgAcetate and [γ-^33P-ATP] (specific activity approx 500 cpm/pmol, concentration as required). The reaction is initiated by the addition of Mg^2+[γ-^33P-ATP]. After incubation for 40 minutes at room temperature the reaction is stopped by the addition of 5 μl of a 3% phosphoric acid solution. 10 μl of the reaction is spotted onto a P30 filter mat and washed 3 times for 5 minutes in 50 mM phosphoric acid and once in methanol prior to drying and counting.

HCT-116 cell line = assay: Anti-proliferative activity, Alamar Blue assay; type: cell-based; conditions: Homo sapiens, read-out: IC50 against the HCT-116 cell line
Method: The anti-proliferative activities of compounds of the invention can be determined by measuring the ability of the compounds to inhibition of cell growth in a number of cell lines. Inhibition of cell growth is measured using the Alamar Blue assay (Nociari, M. M, Shalev, A., Benias, P., Russo, C. Journal of Immunological Methods 1998, 213, 157-167). The method is based on the ability of viable cells to reduce resazurin to its fluorescent product resorufin. For each proliferation assay cells are plated onto 96 well plates and allowed to recover for 16 hours prior to the addition of inhibitor compounds for a further 72 hours. At the end of the incubation period 10% (v/v) Alamar Blue is added and incubated for a further 6 hours prior to determination of fluorescent product at […]. In the case of the non-proliferating cell assay cells are maintained at confluence for 96 hour prior to the addition of inhibitor compounds for a further 72 hours. The number of viable cells is determined by Alamar Blue assay as before. In addition, any morphological changes are recorded. All cell lines can be obtained from ECACC (European Collection of cell Cultures).
In particular, compounds of the invention were tested against the HCT-116 cell line (ECACC Reference: 91091005) derived from human colon carcinoma.

Activated CDK2/CyclinA = Activated CDK2/CyclinA (Homo sapiens, UniProt P24941); assay: Activated CDK2/CyclinA kinase inhibitory activity assay; type: biochemical; conditions: Example 10
Method: as §1
as §2, with “The % inhibition of the CDK2 activity is calculated and plotted in order to determine the concentration of test compound required to inhibit 50% of the CDK2 activity (IC50).” left out

T1 sequence (P06493 whole entry): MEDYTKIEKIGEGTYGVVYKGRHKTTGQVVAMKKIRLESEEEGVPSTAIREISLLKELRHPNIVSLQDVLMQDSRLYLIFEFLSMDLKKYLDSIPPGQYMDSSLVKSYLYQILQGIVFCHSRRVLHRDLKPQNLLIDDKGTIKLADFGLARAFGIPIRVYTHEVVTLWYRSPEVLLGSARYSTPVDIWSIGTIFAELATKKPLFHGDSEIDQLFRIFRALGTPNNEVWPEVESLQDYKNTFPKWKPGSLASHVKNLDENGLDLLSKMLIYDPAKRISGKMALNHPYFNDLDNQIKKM
T1 sequence (P14635 whole entry partner): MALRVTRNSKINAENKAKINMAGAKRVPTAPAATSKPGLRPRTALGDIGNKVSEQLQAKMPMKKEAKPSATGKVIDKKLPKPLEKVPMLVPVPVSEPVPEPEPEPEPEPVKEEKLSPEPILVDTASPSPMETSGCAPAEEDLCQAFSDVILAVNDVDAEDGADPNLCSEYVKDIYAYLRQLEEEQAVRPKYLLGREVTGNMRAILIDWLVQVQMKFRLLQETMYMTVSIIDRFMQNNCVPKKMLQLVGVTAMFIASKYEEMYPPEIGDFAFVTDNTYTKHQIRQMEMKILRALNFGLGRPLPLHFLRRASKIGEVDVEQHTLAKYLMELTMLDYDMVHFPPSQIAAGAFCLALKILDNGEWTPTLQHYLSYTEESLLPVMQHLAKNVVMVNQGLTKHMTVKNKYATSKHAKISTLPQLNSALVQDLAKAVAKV
T2 sequence (Q96GD4 whole entry): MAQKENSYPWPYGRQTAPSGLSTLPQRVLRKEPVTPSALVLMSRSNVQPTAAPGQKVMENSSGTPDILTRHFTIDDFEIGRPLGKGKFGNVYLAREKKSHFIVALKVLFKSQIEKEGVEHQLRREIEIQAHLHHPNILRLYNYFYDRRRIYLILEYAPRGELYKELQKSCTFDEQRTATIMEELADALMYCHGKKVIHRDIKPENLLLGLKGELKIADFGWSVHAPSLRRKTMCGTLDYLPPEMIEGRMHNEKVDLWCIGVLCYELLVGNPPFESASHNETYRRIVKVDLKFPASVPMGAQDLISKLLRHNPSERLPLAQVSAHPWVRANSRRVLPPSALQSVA
GSK3β (human), sequence (P49841 whole entry): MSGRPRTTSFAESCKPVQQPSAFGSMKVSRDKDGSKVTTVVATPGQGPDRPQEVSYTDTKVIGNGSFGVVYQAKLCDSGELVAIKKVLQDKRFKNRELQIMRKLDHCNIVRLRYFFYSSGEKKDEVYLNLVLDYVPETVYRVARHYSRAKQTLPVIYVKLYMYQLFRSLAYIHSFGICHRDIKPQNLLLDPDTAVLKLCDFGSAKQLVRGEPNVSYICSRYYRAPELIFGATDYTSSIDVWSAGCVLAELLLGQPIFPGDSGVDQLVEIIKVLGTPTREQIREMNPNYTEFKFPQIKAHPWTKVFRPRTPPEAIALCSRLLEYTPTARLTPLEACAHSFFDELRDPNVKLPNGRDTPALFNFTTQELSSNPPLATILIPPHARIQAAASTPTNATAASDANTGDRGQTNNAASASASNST

SMILES	IC50 (CDK1/CyclinB) [µM]	IC50 (AuroraB) [µM]	IC50 (GSK3β (human)) [µM]	IC50 (HCT-116 cell line; HCT-116, 72 hours, Alamar Blue) [µM]	IC50 (Activated CDK2/CyclinA) [µM]	IC50 (HCT-116 cell line; HCT-116, 72 h) [µM]
O=C(Nc1scnc1-c1nc2ccccc2[nH]1)c1c(F)cccc1F [Example 1, N-[4-(1H-benzoimidazol-2-yl)-thiazol-5-yl]-2,6-difluoro-benzamide]	< 10	< 0.1	< 1	< 15	< 10	–
O=C(Nc1scnc1-c1nc2ccc(CN3CCOCC3)cc2[nH]1)c1c(F)cccc1F [Example 2, 2,6-difluoro-N-[4-(6-morpholin-4ylmethyl-1H-benzoimidazol-2-yl)-thiazol-5-yl]benzamide]	< 10	–	–	< 1	< 10	–
O=C(Nc1csnc1-c1nc2cc(CN3CCOCC3)ccc2[nH]1)c1c(F)cccc1F [Example 3, 2,6-difluoro-N-[3-(5-morpholin-4-ylmethyl-1H-benzoimidazol-2-yl)-isothiazol-4-yl]-benzamide]	< 10	–	–	–	–	< 15
